Measured values from patent US20230092890A1, “1, 3, 4-Oxadiazole derivative compounds as histone deacetylase 6 inhibitor, and the pharmaceutical composition comprising the same” (Chong Kun Dang Pharmaceutical Corp., priority 2019, published 2023).

Tests used:
HDAC6 human recombinant = target: T1, HDAC6 human recombinant (Homo sapiens, UniProt Q9UBN7); assay: HDAC enzyme activity inhibition (in vitro), HDAC6 assay; format: biochemical; settings: samples at 0.1, 1, 10, 100 and 1000 nM; 37° C. 60 minutes; fluorescence Ex 390, Em 460; read-out: HDAC6 IC50
T1 construct: purchased Calbiochem 382180
T1 sequence (Q9UBN7 1-1215): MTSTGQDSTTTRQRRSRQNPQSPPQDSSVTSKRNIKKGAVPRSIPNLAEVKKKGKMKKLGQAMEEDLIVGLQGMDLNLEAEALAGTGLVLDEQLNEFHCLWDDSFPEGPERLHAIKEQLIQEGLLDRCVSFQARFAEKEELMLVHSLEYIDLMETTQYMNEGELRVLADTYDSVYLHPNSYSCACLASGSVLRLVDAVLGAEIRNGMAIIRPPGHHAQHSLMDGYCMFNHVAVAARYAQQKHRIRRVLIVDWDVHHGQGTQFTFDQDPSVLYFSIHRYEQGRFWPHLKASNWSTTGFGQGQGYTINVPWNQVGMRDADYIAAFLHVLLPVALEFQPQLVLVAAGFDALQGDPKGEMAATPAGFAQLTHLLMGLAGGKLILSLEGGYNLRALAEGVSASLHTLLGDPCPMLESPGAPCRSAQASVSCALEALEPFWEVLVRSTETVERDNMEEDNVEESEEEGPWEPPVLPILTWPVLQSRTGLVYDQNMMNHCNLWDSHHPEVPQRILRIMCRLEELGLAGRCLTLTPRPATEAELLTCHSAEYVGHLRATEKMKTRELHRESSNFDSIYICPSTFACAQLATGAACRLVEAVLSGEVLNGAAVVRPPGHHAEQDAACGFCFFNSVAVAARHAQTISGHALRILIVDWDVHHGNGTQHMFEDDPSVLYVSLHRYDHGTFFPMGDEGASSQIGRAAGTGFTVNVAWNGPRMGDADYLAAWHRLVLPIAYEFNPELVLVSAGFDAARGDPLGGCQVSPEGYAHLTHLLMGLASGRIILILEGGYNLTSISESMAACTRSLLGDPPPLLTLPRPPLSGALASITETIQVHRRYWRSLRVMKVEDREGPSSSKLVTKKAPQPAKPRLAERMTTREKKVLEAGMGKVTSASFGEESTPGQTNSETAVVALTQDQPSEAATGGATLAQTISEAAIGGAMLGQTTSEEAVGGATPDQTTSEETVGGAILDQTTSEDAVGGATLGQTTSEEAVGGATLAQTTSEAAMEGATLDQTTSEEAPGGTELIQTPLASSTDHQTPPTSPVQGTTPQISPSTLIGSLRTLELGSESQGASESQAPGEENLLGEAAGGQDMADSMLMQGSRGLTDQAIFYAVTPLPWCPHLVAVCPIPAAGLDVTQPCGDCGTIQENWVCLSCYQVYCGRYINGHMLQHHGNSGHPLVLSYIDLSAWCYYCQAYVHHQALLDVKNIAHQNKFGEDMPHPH
Experimental: A HDAC enzyme inhibitory capacity of a test material was measured by using HDAC1 Fluorimetric Drug Discovery Assay Kit (Enzolifesciences: BML-AK511) and HDAC6 human recombinant (Calbiochem: 382180). For a HDAC1 assay, samples were treated at a concentration of 100, 1000 and 10000 nM. […] After the above sample treatment, a reaction was continued at 37° C. for 60 minutes, then treated with a developer, and then subjected to a reaction at 37° C. for 30 minutes, after which fluorescence intensity (Ex 390, Em 460) was measured by using FlexStatin3 (Molecular device).

HDAC1 = target: T2, HDAC1 (Homo sapiens, UniProt Q13547); assay: HDAC enzyme activity inhibition (in vitro), HDAC1 Fluorimetric Drug Discovery Assay Kit; format: biochemical; settings: samples at 100, 1000 and 10000 nM; 37° C. 60 minutes; fluorescence Ex 390, Em 460; read-out: HDAC1 IC50
T2 construct: purchased Enzolifesciences BML-AK511
T2 sequence (Q13547 whole entry): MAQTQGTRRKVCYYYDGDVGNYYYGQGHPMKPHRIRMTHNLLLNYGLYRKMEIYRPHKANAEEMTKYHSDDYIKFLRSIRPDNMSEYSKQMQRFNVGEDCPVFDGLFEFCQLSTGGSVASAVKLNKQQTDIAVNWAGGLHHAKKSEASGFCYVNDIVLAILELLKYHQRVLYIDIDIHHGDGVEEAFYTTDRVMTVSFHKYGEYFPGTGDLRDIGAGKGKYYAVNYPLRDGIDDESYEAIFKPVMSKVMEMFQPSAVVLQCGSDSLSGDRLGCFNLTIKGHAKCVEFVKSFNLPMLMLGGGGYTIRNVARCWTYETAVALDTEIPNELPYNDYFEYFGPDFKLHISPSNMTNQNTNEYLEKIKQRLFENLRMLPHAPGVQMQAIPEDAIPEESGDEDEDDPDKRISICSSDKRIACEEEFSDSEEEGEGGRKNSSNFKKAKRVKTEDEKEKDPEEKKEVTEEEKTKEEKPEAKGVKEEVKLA
Experimental: <Experimental Example 1> Identification of HDAC Enzyme Activity Inhibition (In Vitro)
A selective HDAC6 inhibitor is important for selectivity of HDAC1 inhibition, which is a cause of side effects, and thus HDAC1/6 enzyme selectivity and cell selectivity (HDAC1: histone acetylation/HDAC6: tubulin acetylation) were identified.
A HDAC enzyme inhibitory capacity of a test material was measured by using HDAC1 Fluorimetric Drug Discovery Assay Kit (Enzolifesciences: BML-AK511) and HDAC6 human recombinant (Calbiochem: 382180). For a HDAC1 assay, samples were treated at a concentration of 100, 1000 and 10000 nM. For a HDAC6 assay, samples were treated at a concentration of 0.1, 1, 10, 100 and 1000 nM. After the above sample treatment, a reaction was continued at 37° C. for 60 minutes, then treated with a developer, and then subjected to a reaction at 37° C. for 30 minutes, after which fluorescence intensity (Ex 390, Em 460) was measured by using FlexStatin3 (Molecular device).

Structure (SMILES)	IC50 (HDAC6 human recombinant)	IC50 (HDAC1)
CN1CC(n2c(=O)n(Cc3ccc(-c4nnc(C(F)F)o4)cn3)c3cc(F)c(-c4cccnc4)cc32)C1 [Compound 258, 1-((5-(5-(difluoromethyl)-1,3,4-oxadiazole-2-yl)pyridine-2-yl)methyl)-6-fluoro-3-(1-methylazetidine-3-yl)-5-(pyridine-3-yl)-1,3-dihydro-2H-benzo[d]imidazole-2-one]	13 nM	> 10 µM
CN1CCC(n2c(=O)n(Cc3ccc(-c4nnc(C(F)F)o4)cc3F)c3cc(F)c(-c4ccco4)cc32)CC1 [Compound 114, 1-(4-(5-(difluoromethyl)-1,3,4-oxadiazole-2-yl)-2-fluorobenzyl)-6-fluoro-5-(furan-2-yl)-3-(1-methylpiperidine-4-yl)-1,3-dihydro-2H-benzo[d]imidazole-2-one]	88 nM	> 10 µM
Cn1c(=O)n(Cc2ccc(-c3nnc(C(F)F)o3)cn2)c2cc(F)c(Br)cc21 [Compound 147, 5-bromo-1-((5-(5-(difluoromethyl)-1,3,4-oxadiazole-2-yl)pyridine-2-yl)methyl)-6-fluoro-3-methyl-1,3-dihydro-2H-benzo[d]imidazole-2-one]	15 nM	> 10 µM
CN1CCC(n2c(=O)n(Cc3ccc(-c4nnc(C(F)F)o4)cc3F)c3cc(-c4ccc(C(F)(F)F)cc4)ccc32)CC1 [Compound 122, 3-(4-(5-(difluoromethyl)-1,3,4-oxadiazole-2-yl)-2-fluorobenzyl)-1-(1-methylpiperidine-4-yl)-5-(4-(trifluoromethyl)phenyl)-1,3-dihydro-2H-benzo[d]imidazole-2-one]	> 5000 nM	> 10 µM
CCC(F)(F)CN1CCC(n2c(=O)n(Cc3ccc(-c4nnc(C(F)F)o4)cn3)c3cc(Cl)ccc32)CC1 [Compound 233, 5-chloro-1-(1-(2,2-difluorobutyl)piperidine-4-yl)-3-((5-(5-(difluoromethyl)-1,3,4-oxadiazole-2-yl)pyridine-2-yl)methyl)-1,3-dihydro-2H-benzo[d]imidazole-2-one]	107 nM	> 10 µM
O=c1n(Cc2ccc(-c3nnc(C(F)(F)F)o3)cn2)c2ccccc2n1C1CC2(COC2)C1 [Compound 109, 1-(2-oxaspiro[3.3]heptane-6-yl)-3-((5-(5-(trifluoromethyl)-1,3,4-oxadiazole-2-yl)pyridine-2-yl)methyl)-1,3-dihydro-2H-benzo[d]imidazole-2-one]	623 nM	> 10 µM
CN1CCN(c2cc3c(cc2F)n(Cc2ccc(-c4nnc(C(F)F)o4)cn2)c(=O)n3-c2cccnc2)CC1 [Compound 328, 1-((5-(5-(difluoromethyl)-1,3,4-oxadiazole-2-yl)pyridine-2-yl)methyl)-6-fluoro-5-(4-methylpiperazine-1-yl)-3-(pyridine-3-yl)-1,3-dihydro-2H-benzo[d]imidazole-2-one]	85 nM	> 10 µM
O=c1n(Cc2ccc(-c3nnc(C(F)F)o3)cn2)c2ccc(-c3ccncc3)cc2n1C1CCN(C2COC2)CC1 [Compound 282, 1-((5-(5-(difluoromethyl)-1,3,4-oxadiazole-2-yl)pyridine-2-yl)methyl)-3-(1-(oxetan-3-yl)piperidine-4-yl)-5-(pyridine-4-yl)-1,3-dihydro-2H-benzo[d]imidazole-2-one]	16 nM	> 10 µM

Continued by falling IC50 (HDAC6 human recombinant), values first:

IC50 (HDAC6 human recombinant)	IC50 (HDAC1)	Structure (SMILES)
640 nM	> 10 µM	CN1CCC(n2c(=O)n(Cc3ccc(-c4nnc(C(F)F)o4)cc3)c3ncccc32)CC1 [Compound 105, 3-(4-(5-(difluoromethyl)-1,3,4-oxadiazole-2-yl)benzyl)-1-(1-methylpiperidine-4-yl)-1,3-dihydro-2H-imidazo[4,5-b]pyridine-2-one]
456 nM	> 10 µM	O=c1oc2cc(C3CCNCC3)ccc2n1Cc1ccc(-c2nnc(C(F)F)o2)cn1 [Compound 308, 3-((5-(5-(difluoromethyl)-1,3,4-oxadiazole-2-yl)pyridine-2-yl)methyl)-6-(piperidine-4-yl)benzo[d]oxazole-2(3H)-one]
288 nM	> 10 µM	Cc1ccc(-c2ccc3c(c2)n(Cc2ccc(-c4nnc(C(F)F)o4)cc2)c(=O)n3C2CCN(C)CC2)o1 [Compound 130]
160 nM	> 10 µM	CN(C)CCn1c(=O)n(Cc2ccc(-c3nnc(C(F)F)o3)cn2)c2cc(F)c(-c3cccnc3)cc21 [Compound 326, 1-((5-(5-(difluoromethyl)-1,3,4-oxadiazole-2-yl)pyridine-2-yl)methyl)-3-(2-(dimethylamino)ethyl)-6-fluoro-5-(pyridine-3-yl)-1,3-dihydro-2H-benzo[d]imidazole-2-one]
127 nM	> 10 µM	O=c1n(Cc2ccc(-c3nnc(C(F)F)o3)cn2)c2cc(F)c(N3CCN(C4COC4)CC3)cc2n1-c1cccnc1 [Compound 329, 1-((5-(5-(difluoromethyl)-1,3,4-oxadiazole-2-yl)pyridine-2-yl)methyl)-6-fluoro-5-(4-(oxetan-3-yl)piperazine-1-yl)-3-(pyridine-3-yl)-1,3-dihydro-2H-benzo[d]imidazole-2-one]
91 nM	> 10 µM	Cc1ccc(-c2ccc3c(c2)n(C2CCN(C)CC2)c(=O)n3Cc2ccc(-c3nnc(C(F)F)o3)cc2F)o1 [Compound 163, 1-(4-(5-(difluoromethyl)-1,3,4-oxadiazole-2-yl)-2-fluorobenzyl)-5-(5-methylfuran-2-yl)-3-(1-methylpiperidine-4-yl)-1,3-dihydro-2H-benzo[d]imidazole-2-one]
34 nM	> 10 µM	CC(=O)N1CCC(n2c(=O)n(Cc3ccc(-c4nnc(C(F)F)o4)cc3)c3cc(F)ccc32)CC1 [Compound 172, 1-(1-acetylpiperidine-4-yl)-3-(4-(5-(difluoromethyl)-1,3,4-oxadiazole-2-yl)benzyl)-5-fluoro-1,3-dihydro-2H-benzo[d]imidazole-2-one]
28 nM	> 10 µM	CN1CCC(n2c(=O)n(Cc3ccc(-c4nnc(C(F)F)o4)cc3F)c3cc(F)ccc32)CC1 [Compound 69, 3-(4-(5-(difluoromethyl)-1,3,4-oxadiazole-2-yl)-2-fluorobenzyl)-5-fluoro-1-(1-methylpiperidine-4-yl)-1,3-dihydro-2H-benzo[d]imidazole-2-one]
21 nM	> 10 µM	O=c1oc2cc(-c3cccnc3)c(F)cc2n1Cc1ccc(-c2nnc(C(F)F)o2)cn1 [Compound 277, 3-((5-(5-(difluoromethyl)-1,3,4-oxadiazole-2-yl)pyridine-2-yl)methyl)-5-fluoro-6-(pyridine-3-yl)benzo[d]oxazole-2(3H)-one]
19 nM	> 10 µM	Cn1c(=O)n(Cc2ccc(-c3nnc(C(F)F)o3)cn2)c2cc(F)c(-c3cnc(N4CCN(C5COC5)CC4)nc3)cc21 [Compound 343, 1-((5-(5-(difluoromethyl)-1,3,4-oxadiazole-2-yl)pyridine-2-yl)methyl)-6-fluoro-3-methy 1-5-(2-(4-(oxetan-3-yl)piperazine-1-yl)pyrimidine-5-yl)-1,3-dihydro-2H-benzo[d]imidazole-2-one]
